Laboratory results from ChEMBL document CHEMBL4325834, “De Novo Molecular Design of a Novel Octapeptide That Inhibits In Vivo Melanogenesis and Has Great Transdermal Ability” (J Med Chem, 2018).
Activity calls are given as the source filed them. The calls are words filed in the database; no cut-off is given here. Where a SMILES comes first, the peptide text is derived from it.

What was measured:
[1] = Antioxidant activity assessed as DPPH free radical scavenging activity at 80 uM after 30 mins relative to control; format: functional
[2] = Antioxidant activity assessed as ABTS radical scavenging activity at 80 uM after 10 mins relative to control; format: functional
[3] = Reducing power of the compound assessed as reducing Fe3+ power at 80 uM using K3Fe(CN)6 in pH 6.6 phosphate buffer relative to control
[4] = molecular target: T1, Tyrosinase (Agaricus bisporus, UniProt O42713); experiment: Inhibition of mushroom tyrosinase using L-dopa as substrate assessed as reduction in dopachrome production after 20 mins by spectrophotometry
T1 sequence (O42713 whole entry): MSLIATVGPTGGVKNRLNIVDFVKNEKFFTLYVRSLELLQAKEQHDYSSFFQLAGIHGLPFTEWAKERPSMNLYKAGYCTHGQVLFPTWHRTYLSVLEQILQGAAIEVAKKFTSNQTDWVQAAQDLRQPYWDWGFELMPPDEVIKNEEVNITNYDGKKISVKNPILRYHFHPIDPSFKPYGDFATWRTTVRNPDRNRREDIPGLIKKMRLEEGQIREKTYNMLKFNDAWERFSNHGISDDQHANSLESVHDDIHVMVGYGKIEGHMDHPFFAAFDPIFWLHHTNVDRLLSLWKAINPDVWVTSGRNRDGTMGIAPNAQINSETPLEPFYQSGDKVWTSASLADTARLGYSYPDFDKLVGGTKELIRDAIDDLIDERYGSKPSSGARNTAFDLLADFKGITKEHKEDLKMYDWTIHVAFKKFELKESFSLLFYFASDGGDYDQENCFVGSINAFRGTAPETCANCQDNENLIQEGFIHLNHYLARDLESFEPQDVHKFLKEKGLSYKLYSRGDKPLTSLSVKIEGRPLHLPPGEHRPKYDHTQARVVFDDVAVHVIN

[5] = Hemolytic activity against human erythrocytes assessed as amount of hemoglobin released from lysed cells up to 150 uM relative to control; format: ADME, cell-based, Erythrocyte; conditions: read-out: Activity
[6] = system: B16; experiment: Cytotoxicity against mouse B16 cells up to 150 uM by MTT assay relative to control; format: cell-based
[7] = system: HaCaT; experiment: Cytotoxicity against human HaCaT cells up to 150 uM by MTT assay relative to control; format: cell-based
[8] = system: LAD2; experiment: (§1) Proinflammatory activity in human LAD2 cells assessed as increase in mast-cell degranulation by measuring beta-hexosaminidase release at 0.25 mM preincubated for 30 mins followed 4-nitrophenyl-N-acetyl-beta-D-glucosaminide substrate addition and measured after 90 mins by fluorescence-based microplate reader analysis relative to control; format: ADME; conditions: lad2, 1.5 h, 250 µM
[9] = system: LAD2; experiment: as §1, with “0.5” for “0.25”; format: ADME; conditions: lad2, 1.5 h, 500 µM
[10] = system: LAD2; experiment: as §1, with “2” for “0.25”; format: ADME; conditions: lad2, 1.5 h, 2000 µM
[11] = molecular target: T2, Tyrosinase (Mus musculus) (UniProt P11344); experiment: Inhibition of TYR activity in mouse B16 cells assessed as increase in whitening at 20 uM preincubated for 72 hrs followed L-dopa substrate addition and measured after 4 hrs by fluorescence microscopy; format: cell-based
T2 sequence (whole entry): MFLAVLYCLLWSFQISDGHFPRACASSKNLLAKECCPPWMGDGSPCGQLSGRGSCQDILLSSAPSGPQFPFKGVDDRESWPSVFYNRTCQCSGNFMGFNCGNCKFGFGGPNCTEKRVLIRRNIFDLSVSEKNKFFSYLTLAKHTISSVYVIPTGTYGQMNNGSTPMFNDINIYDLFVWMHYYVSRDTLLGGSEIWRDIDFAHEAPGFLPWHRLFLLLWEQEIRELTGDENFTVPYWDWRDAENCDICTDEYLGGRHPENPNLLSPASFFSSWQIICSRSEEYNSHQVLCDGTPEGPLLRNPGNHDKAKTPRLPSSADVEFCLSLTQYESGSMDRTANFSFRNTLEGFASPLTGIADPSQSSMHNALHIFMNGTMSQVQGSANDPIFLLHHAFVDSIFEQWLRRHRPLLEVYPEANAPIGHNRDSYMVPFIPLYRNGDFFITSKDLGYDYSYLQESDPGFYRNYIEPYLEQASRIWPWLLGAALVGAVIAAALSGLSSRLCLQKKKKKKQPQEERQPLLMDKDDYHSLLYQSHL

[12] = molecular target: T2, Tyrosinase (Mus musculus); experiment: Inhibition of TYR activity in mouse B16 cells assessed as melanin levels post exfoliation at 20 uM after 72 hrs by spectrophotometric analysis relative to control; format: cell-based; set-up: scale not given: the % may be the effect or the level left
[13] = molecular target: T2, Tyrosinase (Mus musculus); experiment: Inhibition of TYR activity in mouse B16 cells 20 uM using L-dopa as substrate after 72 hrs relative to control; format: cell-based
[14] = system: B16; experiment: Downregulation of MITF protein expression in mouse B16 cells after 72 hrs by Western blot analysis; format: functional, cell-based
[15] = molecular target: MAP kinase p38 (Mus musculus) (UniProt P47811+O08911+Q9WUI1+Q9Z1B7); experiment: Effect on p38 phosphorylation in mouse B16 cells up to 80 uM after 72 hrs by Western blot analysis; format: cell-based
[16] = species on record: Mus musculus; experiment: Effect on ERK phosphorylation in mouse B16 cells up to 80 uM after 72 hrs by Western blot analysis; format: cell-based
[17] = system: Cavia porcellus; experiment: Prophylactic protection against UVB-induced pigmentation in Dunkin-Hartley guinea pig pigmentation model assessed as increase in whitening administered topically 6 hrs before UV radiation every day for 2 weeks; format: functional, organism-based
[18] = system: Cavia porcellus; experiment: Anti-melanogenic activity in UVB-induced pigmentation Dunkin-Hartley guinea pig model assessed as inhibition of UV-induced melanin production administered topically using PG solvent 6 hrs before UV radiation every day for 2 weeks by Fontana-Masson-staining based assay; format: functional, organism-based
[19] = Toxicity in Dunkin-Hartley guinea pig model of UVB-induced pigmentation assessed as abnormal morphological changes in dermis at 1 mM to 2 mM administered topically 6 hrs before UV radiation every day for 2 weeks by Fontana-Masson-staining based assay; format: tissue-based, Cavia porcellus; conditions: in vivo, topical_or_ocular, 1000 µM
[20] = system: Cavia porcellus; experiment: Protection against UVB-induced pigmentation in Dunkin-Hartley guinea pig assessed as increase in whitening at 1 to 2 mM using PG solvent administered topically post UV radiation for 5 days/week for two consecutive weeks for a total 10 days by Fontana-Masson-staining based assay; format: functional, organism-based
[21] = Drug uptake in skin dermis of brown guinea pig at 2 mM dosed topically after 30 mins using FITC-labelled compound by H and E staining-based fluorescence microscopy; format: ADME, organism-based, Cavia porcellus; conditions: in vivo, topical_or_ocular, 0.5 h, 2000 µM
[22] = molecular target: T3, Tyrosinase (Agaricus bisporus) (UniProt O42713); experiment: Potency index, ratio of IC50 for arbutin to IC50 for test compound for inhibition of mushroom tyrosinase using L-dopa as substrate assessed as reduction in dopachrome production after 20 mins by spectrophotometry
T3 sequence (whole entry): T1 sequence (O42713 whole entry)

[23] = molecular target: T3, Tyrosinase (Agaricus bisporus); experiment: Inhibition of mushroom tyrosinase using L-dopa as substrate assessed as reduction in L-dopa oxidation at IC50 by spectrophotometry
[24] = system: Cavia porcellus; experiment: Protection against UVB-induced pigmentation in Dunkin-Hartley guinea pig assessed as increase in whitening at 1 to 2 mM using CP hydrogel administered topically post UV radiation for 5 days/week for two consecutive weeks for a total 10 days by Fontana-Masson-staining based assay; format: functional, organism-based

Q: With `CC(C)[C@H](NC(=O)[C@H](CCCNC(=N)N)NC(=O)[C@H](Cc1ccccc1)NC(=O)[C@H](CS)NC(=O)[C@H](CCCNC(=N)N)NC(=O)[C@@H](N)[C@@H](C)O)C(=O)N[C@@H](CS)C(=O)N[C@@H](CO)C(=O)O` (H-TRCFRVCS-OH) as the compound, how does the Activity [1] read?
A: The Activity was 97%.

Q: What about the Activity [2] of the same compound?
A: The Activity was 63%.

Q: What about the Activity [3] of the same compound?
A: Its Activity is 0.31.

Q: And the IC50 [4]?
A: The IC50 was 53 µM.

Q: What about the hemolysis [5] of the same compound?
A: Its hemolysis is 1%.

Q: And the Activity [6]?
A: Its Activity is 10%.

Q: And the Activity [7]?
A: Its Activity is 9%.

Q: What about the Activity [8] of the same compound?
A: Its Activity is 7.19%.

Q: What about the Activity [9] of the same compound?
A: The Activity was 7.15%.

Q: And the Activity [10]?
A: Its Activity is 10.51%.

Q: What about the inhibition [11] of the same compound?
A: Its inhibition is “Active”.

Q: And the Activity [12]?
A: The Activity was 52.2%.

Q: What about the inhibition [13] of the same compound?
A: The inhibition was 25.7%.

Q: And the inhibition [14]?
A: The inhibition was “Active”.

Q: And the Activity [15]?
A: Its Activity is “inactive”.

Q: What about the Activity [16] of the same compound?
A: Its Activity is “inactive”.

Q: What about the Activity [17] of the same compound?
A: The Activity was “Dose-dependent effect”.

Q: And the Activity [18]?
A: The Activity was “Dose-dependent effect”.

Q: And the Activity [19]?
A: Its Activity is “Non-Toxic”.

Q: What about the Activity [20] of the same compound?
A: Its Activity is “Active”.

Q: What about the Drug uptake [21] of the same compound?
A: The Drug uptake was “Active”.

Q: What about the Ratio IC50 [22] of the same compound?
A: The Ratio IC50 was 10.

Q: What about the inhibition [23] of the same compound?
A: Its inhibition is “Active”.

Q: And the Activity [24]?
A: The Activity was “Active”.
